Test results from patent US20110008461A1 (priority 2008, published 2011).
“And” between values parts separate entries of the source, which are not always exact repeats. Equal values may be shown once. Where a name gives a salt, the structure may show the parent alone. Read-outs that look alike come from different tables or passages of the source. Marks after values point to notes of the source that are not given here.

Experiments:
[1] = biological target: T1, Rat Liver Cytosolic Phosphoenolpyruvate Carboxykinase (Rattus norvegicus, UniProt P07379); assay: Continuous spectrophotometric PEPCK inhibition assay coupled to malate dehydrogenase (preliminary screen, inhibition patterns, Dixon plots); conditions: for Inhibition of PEPCK (in words): against PEP;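 for all read-outs here: PEPCK activity followed continuously via malate dehydrogenase coupling, where OAA reduction consumes NADH, seen as falling absorbance at 340 nm, run at 35 °C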
T1 sequence (P07379 1-622): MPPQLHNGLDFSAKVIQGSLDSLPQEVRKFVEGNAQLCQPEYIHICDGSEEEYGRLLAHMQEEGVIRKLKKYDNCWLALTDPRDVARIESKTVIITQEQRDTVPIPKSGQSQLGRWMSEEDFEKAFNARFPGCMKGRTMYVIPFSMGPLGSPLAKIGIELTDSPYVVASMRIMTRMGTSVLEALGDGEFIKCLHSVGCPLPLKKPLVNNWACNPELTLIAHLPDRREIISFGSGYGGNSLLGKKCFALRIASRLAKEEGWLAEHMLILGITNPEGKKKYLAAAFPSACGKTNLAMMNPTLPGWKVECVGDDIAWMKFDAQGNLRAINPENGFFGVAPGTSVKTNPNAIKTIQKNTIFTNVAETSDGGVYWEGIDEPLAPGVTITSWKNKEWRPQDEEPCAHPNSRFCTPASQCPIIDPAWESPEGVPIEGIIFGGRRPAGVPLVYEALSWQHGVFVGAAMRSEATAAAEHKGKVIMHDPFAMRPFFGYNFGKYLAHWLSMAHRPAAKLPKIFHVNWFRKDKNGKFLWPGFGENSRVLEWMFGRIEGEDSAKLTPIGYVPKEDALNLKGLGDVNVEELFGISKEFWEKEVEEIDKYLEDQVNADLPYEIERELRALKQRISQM
Protocol: TES (pH 7.2), 7.5% glycerol (v:v), 0.2 mM EDTA.
The inhibition of PEPCK by various compounds was evaluated using a continuous spectrophotometric assay in which the coupling enzyme, malate dehydrogenase, reduced OAA to malate concomitant with the oxidation of NADH to NAD^+. The decrease in absorbance at 340 nm was monitored using a Beckman DU-70 Spectrophotometer equipped with a temperature controller. The standard 1-mL reaction mixture for the production of OAA contained 56 mM HEPES-KOH buffer (pH 7.0), 1 mM IDP (or alternatively, 0.1 mM GDP), 23 U malate dehydrogenase (1 unit of malate dehydrogenase is defined as 1 mole malate produced/min/mg protein), 0.25 mM NADH, 2.3 mM MnCl2, and 48 mM NaHCO3. […] All assay components except PEPCK were preincubated in the cuvette for 3 min at 35° C., the standard assay temperature.
The kinetic parameters for the inhibition studies were best fit to the equations for competitive inhibition (Eq. 1) and noncompetitive inhibition (Eq. 2), using the computer program and nomenclature of Cleland (Cleland, W. W. (1979) Statistical analysis of enzyme kinetic data. Methods Enzymol 63, 103-138).
v=VA/[K(1+1/Kis)+A] (Eq. 1)
v=VA/[K(1/Kis)+A(1+1/Kii)] (Eq. 2)
The parameters are defined as follows: v is the initial velocity, V is the maximal rate of product formation in the absence of inhibitor, A is the concentration of the variable substrate, K is the apparent Michaelis constant for the varied substrate, and Kis and Kii are the inhibition constants.

PEPCK [2] = conditions: cited from earlier work
cytosolic PEPCK = biological target: T2, cytosolic PEPCK (Rattus norvegicus, UniProt P07379); assay: Kinetic data for MPA binding to the allosteric site of PEPCK; assay type: biochemical
T2 sequence (P07379 1-622): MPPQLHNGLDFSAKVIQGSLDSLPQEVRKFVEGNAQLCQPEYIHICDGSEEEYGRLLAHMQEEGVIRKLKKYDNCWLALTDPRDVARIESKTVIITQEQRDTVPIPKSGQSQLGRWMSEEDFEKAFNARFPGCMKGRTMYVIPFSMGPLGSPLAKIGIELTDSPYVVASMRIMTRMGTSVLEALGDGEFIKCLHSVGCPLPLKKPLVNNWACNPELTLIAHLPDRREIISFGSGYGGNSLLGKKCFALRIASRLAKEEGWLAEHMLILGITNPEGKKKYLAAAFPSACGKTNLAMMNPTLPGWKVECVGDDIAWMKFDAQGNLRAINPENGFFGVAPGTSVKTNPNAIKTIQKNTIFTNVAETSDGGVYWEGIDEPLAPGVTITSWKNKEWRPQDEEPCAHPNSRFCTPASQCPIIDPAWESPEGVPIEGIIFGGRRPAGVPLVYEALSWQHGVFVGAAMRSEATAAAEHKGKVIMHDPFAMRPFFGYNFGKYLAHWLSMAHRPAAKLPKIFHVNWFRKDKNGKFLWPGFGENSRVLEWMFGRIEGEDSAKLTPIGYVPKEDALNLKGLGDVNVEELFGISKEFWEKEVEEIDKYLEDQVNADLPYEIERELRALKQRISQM

PEPCK [3] = biological target: T3, PEPCK (Rattus norvegicus, UniProt P07379); assay: Kinetic analysis of CMMP inhibition of PEPCK against PEP (FIG. 5); assay type: biochemical
T3 sequence (P07379 1-622): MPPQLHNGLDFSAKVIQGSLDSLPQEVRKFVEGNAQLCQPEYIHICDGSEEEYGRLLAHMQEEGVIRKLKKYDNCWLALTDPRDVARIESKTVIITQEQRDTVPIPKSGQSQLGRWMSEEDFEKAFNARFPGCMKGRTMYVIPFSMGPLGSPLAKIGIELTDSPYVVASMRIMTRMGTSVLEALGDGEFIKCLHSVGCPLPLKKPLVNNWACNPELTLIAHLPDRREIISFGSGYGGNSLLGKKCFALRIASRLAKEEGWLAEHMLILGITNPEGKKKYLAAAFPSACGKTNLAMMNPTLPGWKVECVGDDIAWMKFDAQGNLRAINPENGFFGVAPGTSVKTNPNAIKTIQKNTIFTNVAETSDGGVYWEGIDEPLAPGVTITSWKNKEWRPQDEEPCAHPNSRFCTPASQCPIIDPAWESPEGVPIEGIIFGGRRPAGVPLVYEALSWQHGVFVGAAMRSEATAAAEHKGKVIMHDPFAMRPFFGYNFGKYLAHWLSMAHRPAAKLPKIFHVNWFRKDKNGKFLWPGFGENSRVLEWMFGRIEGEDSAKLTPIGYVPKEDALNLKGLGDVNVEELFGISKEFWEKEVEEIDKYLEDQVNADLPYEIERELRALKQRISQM
Source text: The ‘I’ values given in the legend are the concentrations of CMMP used in uM.
This was originally supported by the inhibition of PEPCK by sulfoacetate. […] Based upon that work, we proposed a novel scaffold to be utilized in the development of molecules that bridge these two sub-sites with and in doing so would gain potency and, perhaps more importantly with a metabolic enzyme like PEPCK, specificity. This scaffold is Formulas C, E, and/or G and an example is CMMP. […] This molecule thereby gains both potency and specificity for PEPCK. […] The information obtained from FIGS. 4 and 5 indicate that derivatives of CMMP, as shown by the scaffolds of Formulas E and G, are likely to be similarly effective as CMMP.

[4] = substrate: C=C(OP(=O)(O)O)C(=O)O; assay: cells, lysate or membranes named; conditions: other: substrate, determined under the same assay conditions
[5] = PEP varied substrate, Cleland kinetics program, 35° C., pH 7.0
[6] = analogue 3 mM, PEP 40 μM, preliminary screen, average of two PEPCK preparations
[7] = from Dixon plots using two PEP concentrations
[8] = analogue 1.5 mM, PEP 40 μM, preliminary screen, average of two PEPCK preparations
[9] = analogue 6 mM, PEP 40 μM, preliminary screen, average of two PEPCK preparations

Molecule: O=C(O)CCS(=O)(=O)O [Compound 25, 3-Sulfopropionate]
- Pattern of Inhibition ([1]; PEP varied substrate): Competitive
- Ki [1, 5]: 3.4 ± 0.3 mM
- Inhibition of PEPCK (in words) [1]: poor inhibitor
- % Activity Remaining [1, 6]: 69^c %

Molecule: C=C(CC(=O)O)C(=O)O [Compound 7, Itaconate]
- % Activity Remaining [1, 6]: 91^c %

Molecule: O=C(O)CCC(=O)O [Compound 3, Succinate]
- % Activity Remaining [1, 6]: 91^c %
- Ki [1, 7]: > 8 mM

Molecule: N[C@@H](COP(=O)(O)O)C(=O)O [Compound 21, Serine phosphate]
- % Activity Remaining [1, 8]: 108^f %

Molecule: O=P(O)(O)CCP(=O)(O)O [Compound 30, 1,2-Ethanediphosphonate]
- Pattern of Inhibition ([1]; PEP varied substrate): competitive
- Ki [1, 5]: 5.1 mM
- Pattern of Inhibition ([1]; PEP varied substrate, listed as 1,2-Ethanediphosphonate (30)): Competitive
- % Activity Remaining [1, 9]: 96^e %

Molecule: Threonine phosphate [Compound 22]
- % Activity Remaining [1, 6]: 97^c %

Molecule: O=C(O)CP(=O)(O)O [Compound 11, Phosphonoacetate]
- Inhibition of PEPCK (in words) [1]: noninhibitory
- % Activity Remaining [1, 6]: 108^c %

Molecule: N[C@@H](CS(=O)(=O)O)C(=O)O [Compound 26, Cysteic acid]
- Inhibition of PEPCK (in words) [1]: even less inhibitory
- % Activity Remaining [1, 6]: 76^c %

Molecule: C[C@@H]1O[C@@H]1P(=O)(O)O [Compound 33, Phosphomycin]
- % Activity Remaining [1, 6]: 108^c %

Molecule: O=C(O)C(=O)O [Compound 1, Oxalate]
- Ki (PEPCK [2]): 0.005 to 0.089 mM

Molecule: O=C(O)C1CCCC1C(=O)O (centres unmarked) [Compound 8, 1,2-Cyclopentanedicarboxylate]
- % Activity Remaining [1]: 91^c %

Molecule: O=C(O)CNCP(=O)(O)O [Compound 17, N-Phosphonomethylglycine]
- % Activity Remaining [1, 6]: 104^c %

Molecule: N[C@@H](CC(=O)O)C(=O)O [Compound 9, L-Aspartate]
- % Activity Remaining [1, 6]: 112^c %

Molecule: O=C(O)[C@@H](CO)OP(=O)(O)O [Compound 14, 2-D-Phosphoglycerate]
- Inhibition of PEPCK (in words) [1]: noninhibitory
- % Activity Remaining [1, 6]: 110^c %

Molecule: O=S(=O)(O)CCS(=O)(=O)O [Compound 32, 1,2-Ethanedisulfonate]
- % Activity Remaining [1, 9]: 42^e %
- Ki [1, 7]: ~3 mM
- Ki ([1]; from Dixon plots using two PEP concentrations, listed as 1,2-Ethanedisulfonate (32)): 3 mM

Molecule: O=S(=O)(O)CS(=O)(=O)O [Compound 31, Methanedisulfonate]
- Pattern of Inhibition ([1]; PEP varied substrate): noncompetitive
- Pattern of Inhibition ([1]; PEP varied substrate, listed as Methanedisulfonate (31)): Noncompetitive
- % Activity Remaining [1, 8]: 4^f %
- Ki ([1]; read-out: Ki, intercept effect (Kii), noncompetitive, PEP varied substrate): 0.168 ± 0.025 mM
- Ki ([1]; read-out: Ki, slope effect (Kis), noncompetitive, PEP varied substrate, Cleland kinetics program): 0.027 ± 0.003 mM

Molecule: O=C(O)[C@H](O)[C@@H](O)[C@H](O)[C@H](O)COP(=O)(O)O [Compound 16, 6-phosphogluconate]
- Inhibition of PEPCK (in words) [1]: does not inhibit
- % Activity Remaining [1, 6]: 117^c %

Molecule: O=C(O)c1ncccc1S [MPA, 3-mercaptopicolinic acid]
- Ki (cytosolic PEPCK; read-out: apparent affinity): ~0.1 mM
- Pattern of Inhibition (cytosolic PEPCK; versus nucleotide): competitive with nucleotide binding

Molecule: O=C(O)CC(=O)O [Compound 2, Malonate]
- % Activity Remaining [1, 6]: 102^c %

Molecule: CC(C)(C(=O)O)S(=O)(=O)O [Compound 24, 2,2-Dimethylsulfoacetate]
- Ki relative to sulfoacetate [1]: 25 fold
- Pattern of Inhibition [1]: Competitive
- % Activity Remaining [1, 6]: 65^c %
- Ki ([1]; pH 7): 2.1 ± 0.2 mM

Molecule: NC(CCP(=O)(O)O)C(=O)O (centres unmarked) [Compound 19, 2-Amino-4-phosphonobutyrate]
- % Activity Remaining [1, 6]: 104^c %

Molecule: O=C(O)/C=C\C(=O)O [Compound 5, Maleate]
- % Activity Remaining [1, 9]: 52^e %
- Ki [1, 7]: ~2 mM
- Ki ([1]; from Dixon plots using two PEP concentrations, listed as Maleate (5)): 2 mM

Molecule: O=[N+]([O-])c1ccc(OP(=O)(O)O)cc1 [Compound 35, p-Nitrophenylphosphate]
- % Activity Remaining [1, 6]: 103^c %

Molecule: C=C(CP(=O)(O)O)C(=O)O [Compound 15, 2-(Phosphonomethyl)acrylate]
- Inhibition of PEPCK (in words) [1]: noninhibitory
- % Activity Remaining [1, 6]: 92^c %

Molecule: O=C(O)/C=C/C(=O)O [Compound 6, Fumarate]
- Inhibition of PEPCK (in words) [1]: did not inhibit
- % Activity Remaining [1, 9]: 83^e %

Molecule: O=C(O)CSc1cccnc1C(=O)O [CMMP, 3-carboxymethylmercaptopicolinic acid]
- Ki (PEPCK [3]): 0.012 mM
- Pattern of Inhibition (PEPCK [3]; against PEP): competitive

Molecule: O=P(O)(O)OP(=O)(O)O [Compound 28, Pyrophosphate]
- % Activity Remaining [1]: 22^f %
- Ki [1]: 0.172 mM
- Ki ([1]; read-out: Ki, intercept effect (Kii)): 0.063 mM and 0.064 mM
- Ki ([1]; read-out: Ki, slope effect (Kis)): 0.034 mM

Molecule: NC(CP(=O)(O)O)C(=O)O (centres unmarked) [Compound 18, 2-Amino-3-phosphonopropionate]
- Inhibition of PEPCK (in words) [1]: fails to inhibit
- % Activity Remaining [1, 6]: 94^c %

Molecule: NC(CCCP(=O)(O)O)C(=O)O (centres unmarked) [Compound 20, 2-Amino-5-phosphonovalerate]
- % Activity Remaining [1]: 98^f %

Molecule: O=C(O)CC(C(=O)O)S(=O)(=O)O (centres unmarked) [Compound 4, Sulfosuccinate]
- % Activity Remaining [1]: 55^c %
- Ki [1]: ~3.3 mM and 3.3 mM

Molecule: Phenylphosphate [Compound 34]
- % Activity Remaining [1, 6]: 96^c %

Molecule: N[C@@H](CS(=O)O)C(=O)O [Compound 27, Cysteine sulfinic acid]
- Inhibition of PEPCK (in words) [1]: does not cause inhibition
- % Activity Remaining [1, 6]: 105^c %

B1: Rat Liver Cytosolic Phosphoenolpyruvate Carboxykinase (Rattus norvegicus) (protein)
chain: MPPQLHNGLDFSAKVIQGSLDSLPQEVRKFVEGNAQLCQPEYIHICDGSEEEYGRLLAHMQEEGVIRKLKKYDNCWLALTDPRDVARIESKTVIITQEQRDTVPIPKSGQSQLGRWMSEEDFEKAFNARFPGCMKGRTMYVIPFSMGPLGSPLAKIGIELTDSPYVVASMRIMTRMGTSVLEALGDGEFIKCLHSVGCPLPLKKPLVNNWACNPELTLIAHLPDRREIISFGSGYGGNSLLGKKCFALRIASRLAKEEGWLAEHMLILGITNPEGKKKYLAAAFPSACGKTNLAMMNPTLPGWKVECVGDDIAWMKFDAQGNLRAINPENGFFGVAPGTSVKTNPNAIKTIQKNTIFTNVAETSDGGVYWEGIDEPLAPGVTITSWKNKEWRPQDEEPCAHPNSRFCTPASQCPIIDPAWESPEGVPIEGIIFGGRRPAGVPLVYEALSWQHGVFVGAAMRSEATAAAEHKGKVIMHDPFAMRPFFGYNFGKYLAHWLSMAHRPAAKLPKIFHVNWFRKDKNGKFLWPGFGENSRVLEWMFGRIEGEDSAKLTPIGYVPKEDALNLKGLGDVNVEELFGISKEFWEKEVEEIDKYLEDQVNADLPYEIERELRALKQRISQM
- Km [4]: 82 µM and 89 µM
